Data: patent US9682928B2 (NeuroPro Therapeutics, Inc., priority 2009, dated 2017)
Where two headings read alike, the source gives them in different places.

How the values were obtained:
[1] = test system: Male Rj: NMRI mice; assay: Formalin paw test (late phase) in the mouse; format: in vivo
Method: The method described herein detects analgesic/anti-inflammatory activity, generally used to test compounds for pain relief, in particular diabetic neuropathy or nociceptive neuropathy. See Wheeler-Aceto, et al. (1991) Psychopharmacology 104: 35-44.
Mice were given an intraplantar injection of 5% formalin (25 μl) into the posterior left paw. This treatment induces paw licking in control animals. Mice were briefly observed at 1 minute intervals between 15 and 50 minutes after the injection of formalin and the number of occasions that the mice were observed licking the injected paw was recorded. There were 10 mice per group and the test was performed “blind.”
The experiment included 11 groups. Data was analyzed by comparing treated groups with vehicle control using unpaired Mann-Whitney U tests.
Gabapentin (100 mg/kg i.p.) administered under the same experimental conditions, was used as reference substance. The experiment included several groups. Data was analyzed by comparing treated groups with vehicle control using unpaired Mann-Whitney U tests.

[2] = test system: adult mice (C57/B16); assay: Mesial temporal lobe epilepsy model (mice), hippocampal discharges; format: in vivo, mouse; conditions: 50 mg/kg for NTP-2014 and NTP-2026; 150 mg/kg for NTP-2024, NTP-2006, NTP-1007, NTP-1003
Method: Antiepileptic protocol: Up to eight adult mice (C57/B16) are injected with kainate (1 nmol in 50 nl) and are implanted with a bipolar electrode in the dorsal hippocampus using stereotaxic techniques under general anesthesia. […] Drug conditions are counter-balanced, the animals being used as their own controls. Digital EEG recordings are performed in freely moving animals for 20 min pre-injection and 80 min post-injection. The effects of the injected compound are compared versus vehicle injections and reference period (pre-dose). Upon completion of the experiment, standard histological analysis are performed to verify electrode location, cell losses in CA1, CA3 and hilus, as well as dentate gyrus dispersion. Only animals with all characteristics of MTLE are used in data analysis. […] The results below are normalized to the pre-dose condition for each of the treatment group including DMSO and saline vehicle controls. Doses of test article compounds were 50 mg/kg for NTP-2014 and NTP-2026 and 150 mg/kg for NTP-2024, NTP-2006, NTP-1007, and NTP-1003. Therefore the bumetanide, furosemide, piretanide, azosemide, and torsemide esters and amide analogs described herein may be used in therapeutic methods to treat seizures.

[3] = test system: Sprague-Dawley rats; assay: Kainic acid induced seizures in rats; format: in vivo, rat; parameters: key to Seizures Severity Mean ± SD (grade 0 to IV): seizure grade 0 = no response to IV = status epilepticus; conditions: 20 μmoles/kg IP; for Seizures Severity Mean ± SD (grade 0 to IV) / Seizures Mean ± SD (1 = yes, 0 = no): KA 15 mg/kg i.p.; for Seizures Mean ± SD (1 = yes, 0 = no): 2 hours; for change in vivo at 20 µmol/kg: Rattus norvegicus, 2 h, vs DMSO control
Method: Formulation of kainic acid was performed by NTS as a stock solution by reconstituting kainic acid with (100%) saline that was stored at 4° C. Vehicle control received saline solution. […] The research investigators were blinded to the treatment groups.
Solutions were prepared fresh daily just prior to use; dosing of all 10 rats with any given compound occurred on a single day after preparing the dosing solution. […] Unused remaining dosing solutions were stored frozen.
Animals were maintained in a temperature- and light-controlled environment in accord with the principles and procedures of the National Institutes of Health Guidelines for Care and Use of Laboratory Animals. Seizures were induced in adult, male Sprague-Dawley rats (260-300 g) by injection of KA (15 mg/kg, i.p.). In addition, animals were injected with test compounds following kainic acid to determine the effects on protection from epilepsy. Animals were monitored behaviorally for seizures for 2 hours after injection.
Seizure activity was initially characterized as either yes (1) or no (0) within a 2 hour period following injection of KA. A seizure severity grade was assigned based on the maximal response achieved on a scale from 0 to IV as follows: 0, no response; I, single limb clonus and scratching; II, multiple limb clonus and staggering gait; […], limb clonus, tonic extension of limbs and falling; IV, continuous grade III seizures for longer than 30 min (status epilepticus).
The results were expressed as the mean±standard deviation (SD). The significance of difference in the epileptic data was analyzed using a one-way analysis of variance (ANOVA) followed by Fisher's post hoc test. Repeated-measures ANOVA were computed on the monitoring data and the significance of the difference among groups were evaluated by Fisher's post hoc test.
All groups were subjected to kainic acid.
The induction of seizures in rats with kainic acid was determined as either yes seizures (1) or no seizures (0).

[4] = test system: mouse; assay: Formalin test (acute/early and late phase) in mice; format: in vivo; conditions: 150 mg/kg i.p., mice
Method: The formalin test was performed according to the method of Tjølsen, et al. (October 1992) “The formalin test: an evaluation of the method.” Pain 51(1): 5-17. An injection of 0.5% formalin is made into the plantar region of the right hind paw of a mouse. This elicits a distinct behavioral profile in response to the formalin injection characterized by the mouse licking the affected paw. The behavior is characteristically biphasic in nature. For example, immediately following the injection the mouse intensely licks the paw for approximately 5-10 minutes (“min.”) This initial behavior was considered phase 1 (acute) and is thought to be mediated primarily by chemical activation of local C-fibers. The acute phase is followed by a brief latent (usually <5 min) period where there is little or no behavioral activity. A more prolonged (about 20 to 30 min) period of licking then ensues which constitutes phase 2 of the response (late phase). See e.g., Tjølsen, et al. (Feb. 7, 1991) “Antinociceptive effect of paracetamol in rats is partly dependent on spinal serotonergic systems. Eur J Pharmacol. 193(2): 193-201 and Tjølsen, et al. (June 1991) Lesions of bulbo-spinal serotonergic or noradrenergic pathways reduce nociception as measured by the formalin test. Acta Physiol Scand. 142(2): 229-36, the disclosures of each of which are hereby incorporated by reference in its entirety.
It is in these tubes that mice are later observed for the licking activity for the duration of the experiment. Following the conditioning, the test substance was administered i.p. in a dose equivalent to the MES ED50 and the mouse returned to its home tube. At the TPE of the drug, the formalin is injected subdermally into the plantar surface of the right hind foot. It is given in a volume of 20 μl with a 27 gauge stainless steel needle attached to a Hamilton syringe. The bevel of the needle was placed facing down toward the skin surface. […] The cumulative length of licking for each 2-min time period was measured. […] Animals are euthanized following the conclusion of the experiment.
Area under the curve (AUC) and subsequent percent of control for drug-treated animal groups is determined using the GraphPad Prism Version 3.03. Total AUC was calculated for both the test and control groups for both the acute and inflammatory phases. The AUC for individual animals for each phase was also calculated and converted to percentage of total AUC of control. The average and S.E.M. for both the drug treated and control percentages were calculated and tested for significant difference.

[5] = biological target: T1, Na+K+Cl− co-transporter (Rattus norvegicus, UniProt E9PTX9); assay: Na+K+Cl− cotransporter assay, 86Rb uptake in A7r5 cells; format: cell-based; conditions: 10 minutes at 37° C.; for inhibition at 10 µM: read-out: % Inhibition of Control Values; for remaining activity at 10 µM: read-out: % of Control Value
T1 construct: endogenous in cells; host or cells: A7r5 cells
T1 sequence (E9PTX9 1-1203): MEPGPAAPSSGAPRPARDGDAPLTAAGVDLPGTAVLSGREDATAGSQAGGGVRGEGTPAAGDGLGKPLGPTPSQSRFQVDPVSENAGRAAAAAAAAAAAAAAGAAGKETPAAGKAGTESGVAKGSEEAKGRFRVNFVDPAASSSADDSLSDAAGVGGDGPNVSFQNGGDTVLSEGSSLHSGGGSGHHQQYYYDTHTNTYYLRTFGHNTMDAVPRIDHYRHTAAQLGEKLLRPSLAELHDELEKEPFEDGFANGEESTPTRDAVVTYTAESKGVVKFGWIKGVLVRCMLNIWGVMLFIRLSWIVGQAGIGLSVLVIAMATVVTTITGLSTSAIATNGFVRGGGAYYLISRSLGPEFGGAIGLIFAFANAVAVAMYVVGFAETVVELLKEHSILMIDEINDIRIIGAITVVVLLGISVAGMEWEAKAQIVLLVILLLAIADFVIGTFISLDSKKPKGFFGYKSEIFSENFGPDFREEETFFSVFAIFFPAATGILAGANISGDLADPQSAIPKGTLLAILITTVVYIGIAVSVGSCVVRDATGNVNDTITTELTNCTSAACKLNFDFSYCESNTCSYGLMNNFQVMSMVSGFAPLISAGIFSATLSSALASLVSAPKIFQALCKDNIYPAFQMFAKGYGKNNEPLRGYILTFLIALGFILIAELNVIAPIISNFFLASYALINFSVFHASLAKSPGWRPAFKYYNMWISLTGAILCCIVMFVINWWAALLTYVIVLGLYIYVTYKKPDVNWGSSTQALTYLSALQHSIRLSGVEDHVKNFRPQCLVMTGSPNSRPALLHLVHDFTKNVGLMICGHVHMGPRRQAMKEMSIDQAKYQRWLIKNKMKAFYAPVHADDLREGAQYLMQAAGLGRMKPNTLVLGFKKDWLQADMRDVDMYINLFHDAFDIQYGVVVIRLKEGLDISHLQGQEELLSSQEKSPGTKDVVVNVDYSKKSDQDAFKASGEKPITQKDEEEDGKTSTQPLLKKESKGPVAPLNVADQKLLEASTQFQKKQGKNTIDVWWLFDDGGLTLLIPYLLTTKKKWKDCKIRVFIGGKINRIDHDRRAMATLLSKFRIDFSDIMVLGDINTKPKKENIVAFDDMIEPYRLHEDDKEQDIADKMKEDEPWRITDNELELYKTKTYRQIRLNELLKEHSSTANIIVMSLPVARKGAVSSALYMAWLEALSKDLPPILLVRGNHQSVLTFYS
Method: Na^+K^+Cl^− co-transporter activity was measured in vitro in A7r5 cells by measuring their uptake of ^86Rb (0.2 μCi) in 10 minutes at 37° C. as detected by scintillation counting. See Chassande, et al. (1988) “The Na^+/K^+/Cl^− Cotransport in C6 glioma cells. Properties and role in volume regulation.” Eur. J. Biochem. 171: 425433.

[6] = read-out: Percent reduction in Seizures
[7] = read-out: Percent reduction in Seizures Severity

Row | inhibition at 10 µM [5] [%] | remaining activity at 10 µM [5] [%] | Compound | Licking Score % Pain Decrease ([1]; 50 μmol/kg i.p.) [%] | Licking Score % Pain Decrease ([1]; 250 μmol/kg i.p.) [%] | Licking Score % Pain Decrease ([1]; 500 μmol/kg i.p.) [%] | Anti-inflammatory and analgesic effects in formalin paw test (FIG. 16) ([1]; 50, 250, 500 μmole/kg) | Licking Score (15 to 50 minutes post-formalin injection) % Change from Control ([1]; i.p. 30 minutes before the test, 50 μmol/kg (NTP-2006 23.9, NTP-2024 21.7, NTP-1007 19.3, NTP-2014 21, NTP-2026 23.1 mg/kg)) [%] | Licking Score (15 to 50 minutes post-formalin injection) % Change from Control ([1]; i.p., 250 μmol/kg (NTP-2006 119, NTP-2024 108, NTP-1007 96.5, NTP-2014 105, NTP-2026 116 mg/kg)) [%] | Licking Score (15 to 50 minutes post-formalin injection) % Change from Control ([1]; i.p., 500 μmol/kg (NTP-2006 239, NTP-2024 217, NTP-1007 193, NTP-2014 210, NTP-2026 231 mg/kg)) [%] | Cumulative duration of hippocampal discharges [2] | Number of hippocampal discharges [2] | Seizures Severity Mean ± SD (grade 0 to IV) [3] | Seizures Mean ± SD (1 = yes, 0 = no) [3] | change in vivo at 20 µmol/kg [3, 6] [%] | change in vivo at 20 µmol/kg [3, 7] [%] | % of Control, Acute [4] [%] | % of Control, Late Phase [4] [%] | Treated (AUC of licking time), Acute [4] | Treated (AUC of licking time), Late Phase [4]
1 | – | – | CCN(CC)C(=O)c1cc(S(N)(=O)=O)c(Cl)cc1NCc1ccco1 [NTP-1007, N,N-Diethyl 5-Aminosulfonyl-4-chloro-2-[(2-furanylmethyl)amino]benzamide] | 9 | 13 | 66 | show anti-inflammatory and analgesic effects | −9 | −13 | −66 | decreased | decreased | – | – | – | – | – | – | – | –
2 | 17 | 82.8 | CCCCNc1cc(C(=O)N(Cc2ccccc2)Cc2ccccc2)cc(S(N)(=O)=O)c1Oc1ccccc1 [NTP-2008, N,N-Dibenzyl 3-Aminosulfonyl-5-butylamino-4-phenoxybenzamide] | – | – | – | – | – | – | – | – | – | 0.1000 ± 0.3162 | 0.1000 ± 0.3162 | -88.9 | -95.8 | 63.69 | 10.66 | 73.94 | 66.42
3 | 13 | 87.4 | CCCCNc1cc(C(=O)OCC(=O)N(C)C)cc(S(N)(=O)=O)c1Oc1ccccc1 [NTP-2011, N,N-Dimethylaminocarbonylmethyl 3-Aminosulfonyl-5-butylamino-4-phenoxybenzoate] | – | – | – | – | – | – | – | – | – | 0.3000 ± 0.6749 | 0.2000 ± 0.4216 | -77.8 | -87.5 | 53.37 | 0.72 | 78.55 | 5.43
4 | 35 | 65.5 | CCCCNc1cc(C(=O)OCOC(=O)C(C)(C)C)cc(S(N)(=O)=O)c1Oc1ccccc1 [NTP-2012, t-Butylcarbonyloxymethyl 3-Aminosulfonyl-5-butylamino-4-phenoxybenzoate] | – | – | – | – | – | – | – | – | – | 0.2000 ± 0.4216 | 0.2000 ± 0.4216 | -77.8 | -91.7 | 48.5 | 0.49 | 75.07 | 5.08
